Test results as given in paper PMC6325200, “Effects of Microplate Type and Broth Additives on Microdilution MIC Susceptibility Assays” (Antimicrobial Agents and Chemotherapy, 2018).

Key:
[1] = test system: E. coli; conditions: literature value; cited from earlier work
[2] = test system: E. coli ATCC 25922; assay: microbe, parasite or virus in culture; conditions: n = 2
Outline: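 Broth microdilution with 2-fold serial compound dilutions in MH broth, using cultures diluted 40-fold and grown at 37°C for 2 to 3 h, with or without Tween. Variants included 2% beractant added to mid-log cultures, or 50% human serum in MHB.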

[3] = test system: A. baumannii ATCC 19606; assay: microbe, parasite or virus in culture; conditions: Acinetobacter baumannii, n = 2
Outline: (§1)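 Broth microdilution: 2-fold serial dilutions of test compounds plus reference antibiotics; inoculum = culture diluted 40x in MH broth ±Tween, 37°C, 2–3 h. Controls per plate: bacteria alone (positive), medium alone (negative).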

[4] = test system: P. aeruginosa ATCC 10145; assay: microbe, parasite or virus in culture; conditions: Pseudomonas aeruginosa, n = 2
Outline: as §1

[5] = test system: K. pneumoniae ATCC 13883; assay: microbe, parasite or virus in culture; conditions: Klebsiella pneumoniae, n = 2
Outline: as §1

COc1cc(Cc2cnc(N)nc2N)cc(OC)c1OC [Trimethoprim, trimethoprim]
0.5 to 1 µg/mL: MIC ([2]; Corning TC plate, MHB +0.002% T80, no further additive) | MIC ([2]; Escherichia coli, ATCC25922, 24 h, Trek PS, MH + 2% LHB, 2% LS) | MIC ([2]; Escherichia coli, ATCC25922, Corning TC plate, MHB +0.002% T80, no further additive) | MIC ([2]; Escherichia coli, ATCC25922, Corning TC, MH, 50% HS) | MIC ([2]; Escherichia coli, ATCC25922, Trek PS plate, MHB −T80, no additive) | MIC ([2]; Trek PS plate, MHB −T80, no additive)
2 µg/mL: MIC ([2]; Escherichia coli, ATCC25922, 24 h, Corning NBS, MH + T80, 2% LS) | MIC ([2]; Escherichia coli, ATCC25922, 24 h, Corning NBS, MH + T80, 50% HS) | MIC ([2]; Escherichia coli, ATCC25922, 24 h, Trek PS, MH + T80, 2% LS) | MIC ([2]; Escherichia coli, ATCC25922, Trek PS plate, MHB +0.002% T80, no further additive)
16 to 32 µg/mL: MIC ([3]; ATCC19606, Corning NBS, MHB -T80) | MIC ([3]; ATCC19606, Corning TC, MHB -T80)
1 to 4 µg/mL: MIC ([2]; Escherichia coli, ATCC25922, Trek PS, MH, 2% LS)
4 to 8 µg/mL: MIC ([5]; ATCC13883, Corning NBS, MHB -T80)
1 to 8 µg/mL: MIC ([2]; Escherichia coli, ATCC25922, 24 h, Corning PS, MH + 2% LHB, 50% HS) | MIC ([5]; ATCC13883, Corning PS, MHB -T80)
> 64 µg/mL: MIC ([3]; ATCC19606, Corning PS, MHB +T80) | MIC ([3]; ATCC19606, Corning PS, MHB -T80) | MIC ([4]; ATCC10145, Corning NBS, MHB +T80) | MIC ([4]; ATCC10145, Corning NBS, MHB -T80) | MIC ([4]; ATCC10145, Corning PS, MHB +T80) | MIC ([4]; ATCC10145, Corning PS, MHB -T80) | MIC ([4]; ATCC10145, Corning TC, MHB +T80) | MIC ([4]; ATCC10145, Corning TC, MHB -T80)
1 to 2 µg/mL: MIC ([2]; Corning PS plate, MHB +0.002% T80, no further additive) | MIC ([2]; Escherichia coli, ATCC25922, 24 h, Corning NBS, MH + 2% LHB, 50% HS) | MIC ([2]; Escherichia coli, ATCC25922, 24 h, Corning PS, MH + 2% LHB, 2% LS) | MIC ([2]; Escherichia coli, ATCC25922, 24 h, Corning PS, MH + 2% LHB, no additive) | MIC ([2]; Escherichia coli, ATCC25922, 24 h, Corning PS, MH + T80, 2% LS) | MIC ([2]; Escherichia coli, ATCC25922, 24 h, Corning PS, MH + T80, 50% HS) | MIC ([2]; Escherichia coli, ATCC25922, 24 h, Corning TC, MH + 2% LHB, 2% LS) | MIC ([2]; Escherichia coli, ATCC25922, 24 h, Corning TC, MH + 2% LHB, 50% HS) | MIC ([2]; Escherichia coli, ATCC25922, 24 h, Corning TC, MH + T80, 2% LS) | MIC ([2]; Escherichia coli, ATCC25922, 24 h, Corning TC, MH + T80, 50% HS) | MIC ([2]; Escherichia coli, ATCC25922, Corning NBS, MH, 2% LS) | MIC ([2]; Escherichia coli, ATCC25922, Corning NBS, MH, 50% HS) | MIC ([2]; Escherichia coli, ATCC25922, Corning PS plate, MHB +0.002% T80, no further additive) | MIC ([2]; Escherichia coli, ATCC25922, Corning PS, MH, 50% HS) | MIC ([2]; Escherichia coli, ATCC25922, Corning TC, MH, 2% LS) | MIC ([5]; ATCC13883, Corning NBS, MHB +T80)
64 µg/mL: MIC ([3]; ATCC19606, Corning NBS, MHB +T80)
0.25 to 0.5 µg/mL: MIC ([2]; Corning NBS plate, MHB −T80, no additive) | MIC ([2]; Corning PS plate, MHB −T80, no additive) | MIC ([2]; Corning TC plate, MHB −T80, no additive) | MIC ([2]; Escherichia coli, ATCC25922, Corning NBS plate, MHB −T80, no additive) | MIC ([2]; Escherichia coli, ATCC25922, Corning PS plate, MHB −T80, no additive) | MIC ([2]; Escherichia coli, ATCC25922, Corning TC plate, MHB −T80, no additive) | MIC ([2]; Escherichia coli, ATCC25922, Nunc PS plate, MHB +0.002% T80) | MIC ([2]; Escherichia coli, ATCC25922, Nunc U TC plate, MHB +0.002% T80) | MIC ([2]; Escherichia coli, ATCC25922, Nunc U TC plate, MHB −T80) | MIC ([2]; Escherichia coli, ATCC25922, Nunc flat TC plate, MHB +0.002% T80) | MIC ([2]; Escherichia coli, ATCC25922, Nunc flat TC plate, MHB −T80)
0.06–0.25 ([72]) µg/ml: MIC (literature) [1]
0.25 µg/mL: MIC ([2]; Escherichia coli, ATCC25922, Nunc PS plate, MHB −T80)
4 to 16 µg/mL: MIC ([5]; ATCC13883, Corning TC, MHB +T80) | MIC ([5]; ATCC13883, Corning TC, MHB -T80)
1 µg/mL: MIC ([2]; Escherichia coli, ATCC25922, 24 h, Corning NBS, MH + 2% LHB, 2% LS) | MIC ([2]; Escherichia coli, ATCC25922, 24 h, Corning NBS, MH + 2% LHB, no additive) | MIC ([2]; Escherichia coli, ATCC25922, 24 h, Corning TC, MH + 2% LHB, no additive) | MIC ([2]; Escherichia coli, ATCC25922, 24 h, Trek PS, MH + 2% LHB, 50% HS) | MIC ([2]; Escherichia coli, ATCC25922, 24 h, Trek PS, MH + 2% LHB, no additive) | MIC ([2]; Escherichia coli, ATCC25922, Corning NBS plate, MHB +0.002% T80, no further additive) | MIC ([2]; Escherichia coli, ATCC25922, Corning PS, MH, 2% LS) | MIC ([2]; Escherichia coli, ATCC25922, Trek PS, MH, 50% HS)
32 to 64 µg/mL: MIC ([3]; ATCC19606, Corning TC, MHB +T80)
2 to 4 µg/mL: MIC ([2]; Escherichia coli, ATCC25922, 24 h, Trek PS, MH + T80, 50% HS) | MIC ([5]; ATCC13883, Corning PS, MHB +T80)
